{
  "source": "paper PMC7816042",
  "about": "“Insights into the Structure-Activity Relationship of Glycosides as Positive Allosteric Modulators Acting on P2X7 Receptors” (Molecular Pharmacology, 2021)",
  "key": {"human P2X7 [1]": {"biological_target": "T1, human P2X7 (Homo sapiens, UniProt Q99572)", "T1 construct": "expressed in transfected cells", "T1 sequence (Q99572 1-595)": "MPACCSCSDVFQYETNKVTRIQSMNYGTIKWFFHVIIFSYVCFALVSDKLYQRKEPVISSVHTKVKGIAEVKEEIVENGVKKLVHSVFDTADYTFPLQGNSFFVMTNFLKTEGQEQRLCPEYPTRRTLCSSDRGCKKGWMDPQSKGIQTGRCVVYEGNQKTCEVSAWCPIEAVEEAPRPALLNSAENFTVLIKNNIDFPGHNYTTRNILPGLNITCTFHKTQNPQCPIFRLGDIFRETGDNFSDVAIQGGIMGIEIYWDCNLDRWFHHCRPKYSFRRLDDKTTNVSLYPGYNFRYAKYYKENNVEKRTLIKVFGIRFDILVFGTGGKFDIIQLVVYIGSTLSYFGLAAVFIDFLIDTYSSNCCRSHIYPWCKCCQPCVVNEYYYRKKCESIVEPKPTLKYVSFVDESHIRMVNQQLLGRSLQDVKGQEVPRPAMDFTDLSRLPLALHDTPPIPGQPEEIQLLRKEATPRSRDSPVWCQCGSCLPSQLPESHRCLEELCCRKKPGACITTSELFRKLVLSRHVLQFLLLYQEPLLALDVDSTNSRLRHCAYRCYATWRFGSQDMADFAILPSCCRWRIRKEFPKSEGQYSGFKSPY", "experiment": "YO-PRO-1 dye uptake assay in HEK-hP2X7 cells", "assay_type": "cell-based", "details": "for Effect of AZ10606120 pretreatment on response to ATP + glycoside (P2X7 dependence): 10 µM AZ10606120 pretreatment", "protocol": "ATP-induced dye uptake experiments were performed as described previously ([Bidula et al., 2019b]). Briefly, HEK-hP2X7 cells were plated at 2 × 10^4 cells per well (100 μl per well) in complete medium and left overnight to attach to poly-D-lysine–coated 96-well plates. YO-PRO-1 iodide was prepared in a low divalent buffered solution ([…], 2 mM KCl, 13 mM D-glucose, 10 mM HEPES, 0.2 mM CaCl2 pH 7.3) to a final concentration of 2 μM. Medium was removed from the plate using a manual multichannel pipette and YO-PRO-1 containing buffer applied to wells (180 μl per well). […] A Flexstation 3 plate reader (Molecular Devices, Sunnyvale, CA) was used to record YO-PRO-1 fluorescence in HEK-hP2X7 for 300 seconds after the addition of ATP (at 10× final concentration) with/without ginsenoside compounds or vehicle (DMSO). Plates were allowed to warm up to 37°C for 10 minutes before initiating the recording. Baseline recordings were made for 40 seconds before compound addition using the Flexstation 3 fluidics system. YO-PRO-1 fluorescence was measured at 520 nm after excitation at 490 nm (auto cutoff at 495 nm), and the sample interval was 3.5 seconds. Flexstation settings were photomultiplier tube (PMT) medium, six reads per well, pipette height 170, and a rate of injection of 3. Data were acquired using Softmax Pro version 5.4 (Molecular Devices). To analyze the data, area under the dye uptake curve was calculated in Softmax Pro version 5 using zero baseline data with a lag time of 50 seconds (50–300 seconds).\n(§1) Results are expressed as means ± S.D. from the indicated number of experiments. For YO-PRO-1 dye uptake and intracellular calcium experiments, each independent experiment used triplicate wells, and the means of the replicates were collated and plotted. Technical replicates were used to ensure reliability of fluorescence values. […] Dose-response curves were plotted by a nonlinear regression fit with variable slope using GraphPad Prism software version 7. Half-maximal responses are expressed as EC50 values with 95% confidence intervals. These values were calculated from the collated data for each compound from three independent experiments. Statistical differences were determined by analysis of the data by one-way ANOVA followed by Dunnett’s multiple comparison test or Sidak’s multiple comparison test using GraphPad Prism version 7. P < 0.05 was the accepted minimum level of significance."}, "THP-1 cells": {"tested_on": "THP-1 cells", "experiment": "Cell viability assay (resazurin/Alamar blue) in THP-1 cells", "assay_type": "cell-based, human", "details": "500 µM ATP", "protocol": "(§2) HEK-hP2X7 or THP-1 cells were seeded at 5 × 10^3 cells per well in a volume of 100 μl for 24 hours in 96-well plates (Nunclon Edge plates, catalog number 167425; Thermo Scientific). Cells were plated in DMEM:F12 medium or RPMI 1640 medium containing 1% FBS and penicillin/streptomycin for 24 hours in a humidified incubator at 37°C with a constant supply of 5% CO2. Edge wells of the plates were filled with autoclaved distilled water to prevent evaporation of media from wells containing cells. The compounds and ATP were made at 2× final concentration in 1% FBS DMEM:F12 and 100 μl added to the cells for 24 hours. After incubation, resazurin sodium salt (CAS 62758-13-8; Sigma Aldrich) at 0.1 mg/ml in sterile PBS was added to the plate (20 into 200 µl culture medium per well). Cells were incubated for a further 2 hours in a humidified incubator at 37°C with a supply of 5% CO2. A Flexstation 3 microplate reader was used to acquire data. Endpoint fluorescence data were measured using 570 nm excitation wavelength, 600 nm emission wavelength (cutoff at 590 nm), and three reads per well (PMT low). Data were analyzed by performing background correction through subtracting blank medium readings (without cells) from all samples and then normalizing each sample to medium treated cells (control treatment, 100%) as percentage of control.\nResults are expressed as means ± S.D. from the indicated number of experiments. For YO-PRO-1 dye uptake and intracellular calcium experiments, each independent experiment used triplicate wells, and the means of the replicates were collated and plotted. Technical replicates were used to ensure reliability of fluorescence values. Cell viability data were normalized to the vehicle control for each experiment after background correction had been performed. […] These values were calculated from the collated data for each compound from three independent experiments. Statistical differences were determined by analysis of the data by one-way ANOVA followed by Dunnett’s multiple comparison test or Sidak’s multiple comparison test using GraphPad Prism version 7. […]"}, "HEK-hP2X7 cells": {"tested_on": "HEK-hP2X7 cells", "experiment": "Cell viability assay (resazurin/Alamar blue) in HEK-hP2X7 cells", "assay_type": "cell-based, human", "details": "24 hours", "protocol": "as §2\nResults are expressed as means ± S.D. from the indicated number of experiments. For YO-PRO-1 dye uptake and intracellular calcium experiments, each independent experiment used triplicate wells, and the means of the replicates were collated and plotted. Technical replicates were used to ensure reliability of fluorescence values. Cell viability data were normalized to the vehicle control for each experiment after background correction had been performed. Dose-response curves were plotted by a nonlinear regression fit with variable slope using GraphPad Prism software version 7. Half-maximal responses are expressed as EC50 values with 95% confidence intervals. These values were calculated from the collated data for each compound from three independent experiments. Statistical differences were determined by analysis of the data by one-way ANOVA followed by Dunnett’s multiple comparison test or Sidak’s multiple comparison test using GraphPad Prism version 7. P < 0.05 was the accepted minimum level of significance."}, "human P2X7 [2]": {"biological_target": "T1, human P2X7", "parameters": "method as in Helliwell et al., 2015", "details": "ref Helliwell et al., 2015; cited from earlier work"}, "[3]": {"biological_target": "T2, endogenous P2X7 in THP-1 cells (Homo sapiens, UniProt Q99572)", "T2 sequence (Q99572 1-394 limits assumed)": "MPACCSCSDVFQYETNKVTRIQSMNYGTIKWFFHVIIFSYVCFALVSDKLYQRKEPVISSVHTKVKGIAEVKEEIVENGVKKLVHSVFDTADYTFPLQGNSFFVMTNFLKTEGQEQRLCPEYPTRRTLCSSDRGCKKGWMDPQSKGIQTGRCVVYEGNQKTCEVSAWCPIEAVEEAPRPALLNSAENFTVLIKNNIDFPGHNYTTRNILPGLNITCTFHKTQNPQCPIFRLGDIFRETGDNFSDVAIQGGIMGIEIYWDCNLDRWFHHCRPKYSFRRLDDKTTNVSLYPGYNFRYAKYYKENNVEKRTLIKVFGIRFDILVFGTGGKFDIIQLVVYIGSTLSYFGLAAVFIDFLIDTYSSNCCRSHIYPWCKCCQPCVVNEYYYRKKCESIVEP", "experiment": "Fura-2 calcium measurements in THP-1 monocytes", "assay_type": "cell-based", "details": "500 µM ATP co-applied with 10 µM glycoside", "protocol": "THP-1 cells were pelleted by centrifugation (300g, 5 minute), washed, and resuspended in Hanks’ balanced salt solution buffer containing 2 μM fura-2 AM (HelloBio) and 250 μM (±)-sulfinpyrazone. Cells were loaded for 1 hour in a waterbath at 37°C while shielded from light with foil. Loaded cells were washed once with 5 ml Hanks’ balanced salt solution to remove excess fura-2 AM dye. THP-1 cells were then resuspended, counted, and plated at 2 × 10^5 cells per well in a standard clear 96-well plate (NUNC 167008; Thermo Scientific) in low divalent assay buffer without Mg^2+ (145 mM NaCl, 2 mM KCl and 2 mM CaCl2, 13 mM glucose, 10 mM HEPES, pH 7.3) containing 250 μM (±)-sulfinpyrazone. The 10× concentration of agonist (ATP) was prepared in the same assay buffer. ATP was injected automatically into wells at 30 seconds in a Flexstation 3 microplate reader. Ratiometric data were acquired using 340 and 380 nm for excitation wavelengths, 520 nm as the emission wavelength, and six reads per well (PMT medium). Area under the curve was calculated using standard zero baseline normalization with a lag time 0–300 seconds using SoftMax Pro version 5.4 software.\nas §1"}, "[4]": {"tested_on": "nontransfected HEK-293 cells", "experiment": "YO-PRO-1 dye uptake in parental nontransfected HEK-293 cells", "assay_type": "cell-based, human", "details": "drug alone"}},
  "data": [
    {"compound": "Nc1ncnc2c1ncn2[C@@H]1O[C@H](COP(=O)(O)OP(=O)(O)OP(=O)(O)O)[C@@H](O)[C@H]1O", "note": "[ATP, reference compound]", "values": [
      {"measurement": "EC50", "setting": "human P2X7 [1]; average, n = 5 experiments, HEK-hP2X7, read-out: EC50 for ATP + vehicle (DMSO)", "value": 219, "unit": "µM"},
      {"measurement": "Cell viability after ATP", "setting": "THP-1 cells; 24 hours", "value": "73.3% ± 14.4%"}
    ]},
    {"compound": "Cl.Cl.O=C(CC12CC3CC(CC(C3)C1)C2)Nc1cccc2nc(NCCNCCO)ccc12", "note": "[AZ10606120, reference compound]", "values": [
      {"measurement": "Antagonist effect on loss of viability by ATP + ginsenoside-F2 or 20(S)-Rg3", "setting": "HEK-hP2X7 cells; AZ10606120 pretreatment", "value": "prevented"},
      {"measurement": "Antagonist effect on ATP-induced loss of viability", "setting": "THP-1 cells", "value": "lack of effect"}
    ]},
    {"compound": "CC(C)=CCCC(C)(OC1OC(CO)C(O)C(O)C1O)C1CCC2(C)C1C(O)CC1C3(C)CCC(O)C(C)(C)C3CCC12C", "note": "(stereo not shown) [Ginsenoside-CK]", "values": [
      {"measurement": "Cell viability in combination with ATP", "setting": "HEK-hP2X7 cells", "value": "very effective at enhancing cell death"},
      {"measurement": "Effect of AZ10606120 pretreatment on response to ATP + glycoside (P2X7 dependence)", "setting": "human P2X7 [1]", "value": "abolished"},
      {"measurement": "PAM effect on ATP dose-response curve", "setting": "human P2X7 [1]; 10 µM glycoside, HEK-hP2X7, result in words", "value": "mixed type I/II effects"},
      {"measurement": "Maximum response (fold increase)", "setting": "human P2X7 [1]; maximum response defined at 1 mM ATP, 10 µM glycoside", "value": "2.4–4.4 fold"},
      {"measurement": "Enhancement of ATP-induced cell death", "setting": "THP-1 cells; 24 hours", "value": "could significantly enhance this ATP-induced cell death"},
      {"measurement": "PAM activity at human P2X7", "setting": "human P2X7 [2]", "value": "highest activity"},
      {"measurement": "Effect on ATP-induced calcium response", "setting": "[3]", "value": "increased the peak response and the sustained elevation in [Ca^2+]i"}
    ]},
    {"compound": "C[C@H]1O[C@@H](O[C@H]2CC[C@@]3(C)[C@@H](CC[C@]4(C)[C@@H]3C=C[C@]35OC[C@@]6(CCC(C)(C)C[C@H]63)[C@@H](O)C[C@]54C)[C@]2(C)CO)[C@H](O)[C@@H](O[C@@H]2O[C@H](CO)[C@@H](O)[C@H](O)[C@H]2O)[C@H]1O", "note": "[Saikosaponin A, saikosaponin A]", "values": [
      {"measurement": "Effect of AZ10606120 pretreatment on response to ATP + glycoside (P2X7 dependence)", "setting": "human P2X7 [1]", "value": "unaffected by AZ10606120 pretreatment"},
      {"measurement": "ATP-induced YO-PRO-1 response in fixed-concentration screen", "setting": "human P2X7 [1]; 200 µM ATP, 10 µM glycoside, compared with ATP + DMSO", "value": "large increase"},
      {"measurement": "Toxic effect on cells", "setting": "human P2X7 [1]; YO-PRO-1 uptake without ATP or without P2X7", "value": "toxic effect on the cells"},
      {"measurement": "YO-PRO-1 uptake in HEK-hP2X7 cells in the absence of ATP", "setting": "human P2X7 [1]; drug alone", "value": "could induce YO-PRO-1 uptake"},
      {"measurement": "YO-PRO-1 uptake in nontransfected HEK-293 cells (no P2X7)", "setting": "[4]", "value": "could induce YO-PRO-1 uptake"}
    ]}
  ]
}
